Reference: patent publication US7297676B2, “Thymosin alpha 1 peptide/polymer conjugates” (SciClone Pharmaceuticals, Inc., priority 2001, dated 2007)
Ends that are not written are not given here.

Experiments:
[1] = Adverse events observed in the rat studies; assay type: in vivo
Description: In the following examples, which are not intended to be limiting, a continuous infusion of TA1 was evaluated in a cancer therapy model with the use of surgically implanted osmotic minipumps, which deliver fluids at a constant flow rate for 5 days. Rats were given 5-fluorouracil (5-FU) to cause immune suppression, and then treated with injected or infused TA1 8 days later (the nadir of white cell count after 5-FU). Treatment groups, 8 rats each, were: control (minipumps with saline); low dose TA1 (0.2 mg/Kg sc injection; empty minipumps); high dose TA1 (3.5 mg/Kg sc injection; empty minipumps); and high dose infused TA1 (3.5 mg/Kg infused by minipumps). Immune parameters were determined at baseline and 8 days after 5-FU treatment (day 1 of TA1 treatment), and also at 5, 12, 20, and 27 days after TA1 treatment.
8 days after 5-FU treatment, rats were randomly assigned to one of the following groups (n=15): • Control (saline in minipump) • High dose TA1, injected s.c. at 3.5 mg/Kg (with empty minipumps) • Continuous infusion TA1, provided by minipump at 3.5 mg/Kg/5 days

[2] = subcutaneously injected; cited from earlier work
[3] = cited from earlier work
[4] = test system: NK activity; assay: Example 1: return of NK activity in 5-FU immune-suppressed rats; assay type: in vivo, rat; conditions: one injection, molar equivalent of 200 ug/kg thymosin, compared with Thymosin alpha 1 200 ug/kg
Description: (§1) Rats were injected with 5-fluorouracil (5-FU) to cause immune suppression, then were treated with an injection of thymosin alpha 1 (200 ug/kg) or pegylated thymosin alpha 1 (20,000 MW PEG-Thymosin alpha 1) (the equivalent on a molar basis of 200 ug/kg of thymosin molecules) to determine the effect on immune parameters.

[5] = test system: activated T cells, CD25+; assay: Example 1: return of activated T cells in 5-FU immune-suppressed rats; assay type: in vivo, rat; conditions: one injection, molar equivalent of 200 ug/kg thymosin, compared with Thymosin alpha 1 200 ug/kg
Description: as §1

Substance	adverse events ([1]; one rat given both injection 3.5 mg/Kg and continuous infusion of another 3.5 mg/Kg)	adverse events ([1]; rats, doses 15 times higher than usual (in one animal 30 times higher))	plasma half-life [2]	dose found to be safe for humans [3] [mg/kg body weight/day]	return of NK activity (after depression by 5-FU) [4]	return of activated T cells, CD25+ [5]
Ac-SDAAVDTSSEITTKDLKEKKEVVEEAEN-OH [TA1, Thymosin alpha 1]	no obvious adverse events	No adverse events were observed	about 2 hours	≤ 16	–	–
PEG-Thymosin alpha 1: 20,000 molecular weight PEG conjugated to the N-terminal end of TA1 ({PEG 20 kDa}-SDAAVDTSSEITTKDLKEKKEVVEEAEN; ends and bridges not checked; UniProt P06454 2-29, looked up)	–	–	–	–	greater	greater
